Laboratory results taken from article PMC7419507, “In vitro Cas9-assisted editing of modular polyketide synthase genes to produce desired natural product derivatives” (Nature Communications, 2020).
“And” between values parts separate entries of the source, which are not always exact repeats. Equal entries are not always repeated. “Also recorded” adds a separate entry of the source.

How the values were obtained:
[1] = test system: human ovarian adenocarcinoma SKOV-3 cells; assay: Cytotoxicity assay (CellTiter-Glo, 72 h), SKOV-3; format: cell-based; conditions: raw replicate data
Outline: (§1)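 1000 cells/well; 4 h settle, then 2-fold serial dilutions (0.5% DMSO final), 72 h, 37 °C/5% CO2. Read-out: CellTiter-Glo luminescence. Media: RPMI1640 + 10% FBS (Jurkat, MESO-1; Jurkat also Glutamax), DMEM + 10% FBS (SKOV-3).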

[2] = Cytotoxicity assay (CellTiter-Glo, 72 h), SKOV-3; format: cell-based, human; conditions: human, raw replicate data, read-out: SKOV3 viability (%)
Outline: as §1

[3] = test system: malignant pleural mesothelioma MESO-1 cells; assay: Cytotoxicity assay (CellTiter-Glo, 72 h), MESO-1; format: cell-based; conditions: raw replicate data
Outline: as §1

[4] = Cytotoxicity assay (CellTiter-Glo, 72 h), MESO-1; format: cell-based; conditions: human, MESO-1 malignant pleural mesothelioma cells, raw replicate data, read-out: MESO1 viability (%)
Outline: as §1

[5] = test system: Jurkat, SKOV-3 and MESO-1 cells; assay: Cytotoxicity assay, statements for all tested cell lines together; format: cell-based
Outline: as §1

FKBP12 and mTOR = target: T1, FKBP12 and mTOR (Homo sapiens, UniProt P42345+P62942); assay: Fluoppi analysis: induction of FKBP12-mTOR complex formation in transfected HeLa cells; format: cell-based; conditions: for Foci intensity: raw data, one replicate per line
T1 construct: host or cells: HeLa cells
Outline: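 HeLa cells co-transfected with phAG-mTOR and pAsh-FKBP12, seeded 3000 cells/well, then compound-treated 1 h after 24 h at 37 °C. Fixed, Hoechst-stained, imaged by high-content microscopy; foci fluorescence normalized to total cell fluorescence, EC50 computed.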

T1 sequence (P42345 2025-2114 limits assumed): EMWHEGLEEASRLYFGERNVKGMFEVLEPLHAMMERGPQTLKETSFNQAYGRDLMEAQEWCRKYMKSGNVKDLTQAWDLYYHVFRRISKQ
T1 sequence (P62942 whole entry): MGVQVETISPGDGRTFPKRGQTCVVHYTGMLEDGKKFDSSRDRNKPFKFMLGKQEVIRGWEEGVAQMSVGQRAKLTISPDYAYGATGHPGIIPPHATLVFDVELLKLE

For COC1CC2CCC(C)C(O)(O2)C(=O)C(=O)N2CCCCC2C(=O)OC(C(C)CC2CCC(O)C(OC)C2)CC(=O)C(C)C=C(C)C(O)C(OC)C(=O)C(C)CC(C)C=CCCC=C1C (stereo not drawn) [Compound 15, 19,20-dihidro-rapamycin], the “SKOV3 viability (%)” value ([1]; conc 9.53674e-5 uM) was 104.4%, the “SKOV3 viability (%)” value ([1]; conc 0.000190735 uM) was 106.7% and 103.7% and the “SKOV3 viability (%)” value ([1]; conc 0.00038147 uM) was 104.3% and 105.3%. For the same compound, the “SKOV3 viability (%)” value ([1]; conc 0.000762939 uM) was 104.7% and 102.3%, the “SKOV3 viability (%)” value ([1]; conc 0.00152588 uM) was 105.8% and the “SKOV3 viability (%)” value ([1]; conc 0.00610352 uM) was 104.8% and 103.3%. The “SKOV3 viability (%)” value ([1]; conc 0.012207 uM) was 100.2% and 102.5%, the “SKOV3 viability (%)” value ([1]; conc 0.0244141 uM) was 99.1% and 104.1% and the “SKOV3 viability (%)” value ([1]; conc 0.0488281 uM) was 98.9% and 94.0%. For the same compound, the “SKOV3 viability (%)” value ([1]; conc 0.0976562 uM) was 97.9% and 101.5%, the “SKOV3 viability (%)” value ([1]; conc 0.195312 uM) was 91.8% and 87.6% and the “SKOV3 viability (%)” value ([1]; conc 0.390625 uM) was 93.7% and 87.4%. For the same compound, the “SKOV3 viability (%)” value ([1]; conc 0.78125 uM) was 82.2% and 82.5%, the “SKOV3 viability (%)” value ([1]; conc 1.5625 uM) was 81.5% and 77.5% and the “SKOV3 viability (%)” value ([1]; conc 3.125 uM) was 73.9% and 77.4%. The “SKOV3 viability (%)” value ([1]; conc 6.25 uM) was 68.2% and 74.1%, the “SKOV3 viability (%)” value ([1]; conc 12.5 uM) was 67.0% and 61.2% and the “SKOV3 viability (%)” value ([1]; conc 25 uM) was 54.3% and 53.4%. For the same compound, the “SKOV3 viability (%)” value ([1]; conc 50 uM) was 3.9% and 4.5%, the viability at 72 h, 9.53674e-05 uM ([2]; SKOV-3 cells (ovarian adenocarcinoma), conc 9.53674e-5 uM) was 106% and the viability at 72 h, 0.000190735 uM ([2]; SKOV-3 cells (ovarian adenocarcinoma), conc 0.000190735 uM) was 101%. It also gave a viability at 72 h, 0.00038147 uM ([2]; SKOV-3 cells (ovarian adenocarcinoma), conc 0.00038147 uM) of 102%, a viability at 72 h, 0.000762939 uM ([2]; SKOV-3 cells (ovarian adenocarcinoma), conc 0.000762939 uM) of 102% and a viability at 72 h, 0.00152588 uM ([2]; SKOV-3 cells (ovarian adenocarcinoma), conc 0.00152588 uM) of 105%. It also gave a viability at 72 h, 0.00305176 uM ([2]; SKOV-3 cells (ovarian adenocarcinoma), conc 0.00305176 uM) of 108%, a viability at 72 h, 0.00610352 uM ([2]; SKOV-3 cells (ovarian adenocarcinoma), conc 0.00610352 uM) of 104% and a viability at 72 h, 0.012207 uM ([2]; SKOV-3 cells (ovarian adenocarcinoma), conc 0.012207 uM) of 106%. It also gave a viability at 72 h, 0.0244141 uM ([2]; SKOV-3 cells (ovarian adenocarcinoma), conc 0.0244141 uM) of 102%, a viability at 72 h, 0.0488281 uM ([2]; SKOV-3 cells (ovarian adenocarcinoma), conc 0.0488281 uM) of 95.2% and a viability at 72 h, 0.0976562 uM ([2]; SKOV-3 cells (ovarian adenocarcinoma), conc 0.0976562 uM) of 99.4%. For the same compound, the viability at 72 h, 0.195312 uM ([2]; SKOV-3 cells (ovarian adenocarcinoma), conc 0.195312 uM) was 91%, the viability at 72 h, 0.390625 uM ([2]; SKOV-3 cells (ovarian adenocarcinoma), conc 0.390625 uM) was 84.3% and the viability at 72 h, 12.5 uM ([2]; SKOV-3 cells (ovarian adenocarcinoma), conc 12.5 uM) was 63.5%. It also gave a viability at 72 h, 25 uM ([2]; SKOV-3 cells (ovarian adenocarcinoma), conc 25 uM) of 51.1%, a viability at 72 h, 50 uM ([2]; SKOV-3 cells (ovarian adenocarcinoma), conc 50 uM) of 4% and a viability at 72 h, 0.78125 uM ([2]; SKOV-3 ovarian adenocarcinoma cells, conc 0.78125 uM) of 77.1%. The viability at 72 h, 1.5625 uM ([2]; SKOV-3 ovarian adenocarcinoma cells, conc 1.5625 uM) was 85.7%, the viability at 72 h, 3.125 uM ([2]; SKOV-3 ovarian adenocarcinoma cells, conc 3.125 uM) was 72.5% and the viability at 72 h, 6.25 uM ([2]; SKOV-3 ovarian adenocarcinoma cells, conc 6.25 uM) was 65.8%. For the same compound, the “MESO1 viability (%)” value ([3]; conc 9.53674e-5 uM) was 97.4% and 107.3%, the “MESO1 viability (%)” value ([3]; conc 0.000190735 uM) was 96.0% and 92.6% and the “MESO1 viability (%)” value ([3]; conc 0.00038147 uM) was 101.5% and 100.0%. For the same compound, the “MESO1 viability (%)” value ([3]; conc 0.000762939 uM) was 86.7% and 94.3%, the “MESO1 viability (%)” value ([3]; conc 0.00152588 uM) was 92.8% and 93.2% and the “MESO1 viability (%)” value ([3]; conc 0.00305176 uM) was 90.6%. For the same compound, the “MESO1 viability (%)” value ([3]; conc 0.00610352 uM) was 91.6% and 97.1%, the “MESO1 viability (%)” value ([3]; conc 0.012207 uM) was 80.5% and the “MESO1 viability (%)” value ([3]; conc 0.0244141 uM) was 89.5% and 86.4%. The “MESO1 viability (%)” value ([3]; conc 0.0488281 uM) was 83.3% and 88.8%, the “MESO1 viability (%)” value ([3]; conc 0.0976562 uM) was 82.7% and 83.7% and the “MESO1 viability (%)” value ([3]; conc 0.195312 uM) was 70.8% and 80.6%. For the same compound, the “MESO1 viability (%)” value ([3]; conc 0.390625 uM) was 69.4% and 71.4%, the “MESO1 viability (%)” value ([3]; conc 0.78125 uM) was 68.2% and 67.7% and the “MESO1 viability (%)” value ([3]; conc 1.5625 uM) was 70.1% and 68.2%. For the same compound, the “MESO1 viability (%)” value ([3]; conc 3.125 uM) was 66.5%, the “MESO1 viability (%)” value ([3]; conc 6.25 uM) was 67.5% and 68.1% and the “MESO1 viability (%)” value ([3]; conc 12.5 uM) was 65.8% and 62.8%. The “MESO1 viability (%)” value ([3]; conc 25 uM) was 15.9% and 37.2% and 39.7%, the “MESO1 viability (%)” value ([3]; conc 50 uM) was 0.367% and 0.476% and the viability at 72 h, 9.53674e-05 uM ([4]; conc 9.53674e-5 uM) was 94.1%. It also gave a viability at 72 h, 0.000190735 uM ([4]; conc 0.000190735 uM) of 92%, a viability at 72 h, 0.00038147 uM ([4]; conc 0.00038147 uM) of 98.8% and a viability at 72 h, 0.000762939 uM ([4]; conc 0.000762939 uM) of 93.3%. For the same compound, the viability at 72 h, 0.00152588 uM ([4]; conc 0.00152588 uM) was 97.7%, the viability at 72 h, 0.00305176 uM ([4]; conc 0.00305176 uM) was 89.3% and the viability at 72 h, 0.00610352 uM ([4]; conc 0.00610352 uM) was 90.8%. For the same compound, the viability at 72 h, 0.012207 uM ([4]; conc 0.012207 uM) was 87.6%, the viability at 72 h, 0.0244141 uM ([4]; conc 0.0244141 uM) was 92.1% and the viability at 72 h, 0.0488281 uM ([4]; conc 0.0488281 uM) was 82.9%. For the same compound, the viability at 72 h, 0.0976562 uM ([4]; conc 0.0976562 uM) was 81.6%, the viability at 72 h, 0.195312 uM ([4]; conc 0.195312 uM) was 70.6% and the viability at 72 h, 0.390625 uM ([4]; conc 0.390625 uM) was 78.2%. The viability at 72 h, 0.78125 uM ([4]; conc 0.78125 uM) was 66.4%, the viability at 72 h, 1.5625 uM ([4]; conc 1.5625 uM) was 69.2% and the viability at 72 h, 3.125 uM ([4]; conc 3.125 uM) was 67.6%. For the same compound, the viability at 72 h, 6.25 uM ([4]; conc 6.25 uM) was 68.9%, the viability at 72 h, 12.5 uM ([4]; conc 12.5 uM) was 63.9% and the viability at 72 h, 50 uM ([4]; conc 50 uM) was 0.6%. For the same compound, the “Effect on cell viability, in words” value ([5]; Jurkat, SKOV-3 and MESO-1 cells, 72 h) was “slightly suppressed the cell viabilities”, the “Cytostatic effect, fold lower than that of 1” value ([5]; relative to rapamycin (1)) was ~ 100 fold and the EC50 (FKBP12 and mTOR) was 6.3 nM. The “PPI-inducing (binding enhancing) activity between FKBP12 and mTOR compared with rapamycin (1), in words” value (FKBP12 and mTOR; Fluoppi) was “as potent as rapamycin; also recorded: comparable level to that of rapamycin”, the Foci intensity (FKBP12 and mTOR; conc 9.53674e-5 uM) was 0.01733 and 0.01067 and 0.005693 and the Foci intensity (FKBP12 and mTOR; conc 0.000190735 uM) was 0.01213 and 0.0332 and 0.01291. The Foci intensity (FKBP12 and mTOR; conc 0.00038147 uM) was 0.02253 and 0.02952 and 0.01485, the Foci intensity (FKBP12 and mTOR; conc 0.000762939 uM) was 0.009661 and 0.01831 and 0.03236 and the Foci intensity (FKBP12 and mTOR; conc 0.00152588 uM) was 0.02962 and 0.01659 and 0.0505. For the same compound, the Foci intensity (FKBP12 and mTOR; conc 0.00305176 uM) was 0.04113 and 0.07899 and 0.06427, the Foci intensity (FKBP12 and mTOR; conc 0.00610352 uM) was 0.1575 and 0.2102 and 0.171 and the Foci intensity (FKBP12 and mTOR; conc 0.012207 uM) was 0.3436 and 0.3356 and 0.3668. For the same compound, the Foci intensity (FKBP12 and mTOR; conc 0.0244141 uM) was 0.3409 and 0.4046 and 0.3885, the Foci intensity (FKBP12 and mTOR; conc 0.0488281 uM) was 0.3546 and 0.3355 and 0.3935 and the Foci intensity (FKBP12 and mTOR; conc 0.0976562 uM) was 0.3693 and 0.3135 and 0.3917. The Foci intensity (FKBP12 and mTOR; conc 0.195312 uM) was 0.3656 and 0.4341 and 0.3989, the Foci intensity (FKBP12 and mTOR; conc 0.390625 uM) was 0.405 and 0.3385 and 0.3714 and the Foci intensity (FKBP12 and mTOR; conc 0.78125 uM) was 0.3465 and 0.4349 and 0.4007. For the same compound, the Foci intensity (FKBP12 and mTOR; conc 1.5625 uM) was 0.3165 and 0.3834 and 0.336, the Foci intensity (FKBP12 and mTOR; conc 3.125 uM) was 0.3857 and 0.3532 and 0.3973 and the Foci intensity (FKBP12 and mTOR; conc 6.25 uM) was 0.3637 and 0.3694 and 0.3083. For the same compound, the Foci intensity (FKBP12 and mTOR; conc 12.5 uM) was 0.3396 and 0.3224 and 0.3917, the Foci intensity (FKBP12 and mTOR; conc 25 uM) was 0.3402 and 0.3226 and 0.4132 and the Foci intensity (FKBP12 and mTOR; conc 50 uM) was 0.4382 and 0.3564 and 0.4638.
